Measured values: PMC2833169, “Anti-malarial activity of a non-piperidine library of next-generation quinoline methanols” (Malaria Journal, 2010)
In brackets after ≈: the same amount, converted by molar mass. Read-outs that look alike come from different tables or passages of the source.

Tests used:
P. falciparum strain D6 = experiment: labeled hypoxanthine susceptibility assay, P. falciparum D6; format: cell-based, Plasmodium falciparum; conditions: for IC90: Plasmodium falciparum
Protocol: (§1) The in vitro activities of quinoline methanols against P. falciparum strains W2, D6, TM91C235, and TM90C2A were evaluated using the traditional labeled hypoxanthine assay of Desjardins et al as modified by Milhous et al. These four P. falciparum strains were selected since they have various levels of resistance to conventional anti-malarials.

[1] = test system: P. falciparum strain TM90C2A; experiment: labeled hypoxanthine susceptibility assay, P. falciparum TM90C2A; format: cell-based, Plasmodium falciparum; conditions: for CSI (C2A/W2): ratio of IC90 C2A to IC90 W2
Protocol: as §1

P. falciparum strain W2 = experiment: labeled hypoxanthine susceptibility assay, P. falciparum W2; format: cell-based, Plasmodium falciparum; conditions: for IC90: Plasmodium falciparum
Protocol: as §1

[2] = test system: rodent macrophage (RAW) cell line; experiment: cells; conditions: read-out: Macrophage IC50
Protocol: General cytotoxicity was assessed by first determining LC50 's against a rodent macrophage (RAW) cell line using the 3-(4,5-dimethylthiazole-2-yl)-2,5-diphenyltetrazolium bromide (MTT) assay as described in one of our earlier studies. This screen was conducted to identify compounds that may require de-selection due to generalized toxicity. […] In vitro neurocytotoxicity was assessed by determining LC50s against primary mouse neurons using the MTT assay as described previously. Inhibition of the A2A and A1 receptors was determined at 200 nM in duplicate by Caliper Biosciences (Hanover, Maryland).

[3] = test system: P. falciparum strain TM91C235; experiment: labeled hypoxanthine susceptibility assay, P. falciparum TM91C235; format: cell-based, Plasmodium falciparum; conditions: for IC90: Plasmodium falciparum, read-out: PF C235 IC90
Protocol: as §1

[4] = D6, read-out: PF D6 IC90, P. falciparum D6
[5] = Plasmodium falciparum, TM90C2A, read-out: PF C2A IC90
[6] = Plasmodium falciparum, TM90C2A, read-out: IC90 PfC2A

Row | SMILES | IC90 (P. falciparum strain D6; [4]) | IC90 [1, 5] | CSI (C2A/W2) [1] | IC90 (P. falciparum strain W2; W2, read-out: PF W2 IC90) | IC50 ([2]; Mus musculus, Macrophage) | IC90 [3] | IC90 [1, 6] | other results
1 | OC(CNCCC1=CCCCC1)c1cc(C(F)(F)F)nc2c(C(F)(F)F)cccc12 (racemic) [compound 308249] | 0.033 µg/mL (≈ 0.0762 µM) | 0.0693 µg/mL | 7.8 | 0.00885 µg/mL (≈ 0.0205 µM) | 27000 nM | 0.0392 µg/mL (≈ 0.0906 µM) | – | –
2 | CCCNCC(O)c1cc(C(F)(F)F)nc2c(C(F)(F)F)cccc12 (racemic) [WR183544] | – | – | – | – | – | – | 40 nM | –
3 | OC(CN1CCCC1)c1cc(C(F)(F)F)nc2c(C(F)(F)F)cccc12 (racemic) [compound 308268] | – | – | 7.7 | – | – | – | – | PF D6 IC90 (P. falciparum strain D6; P. falciparum D6): 0.04702 µg/mL; PF C2A IC90 ([1]; P. falciparum TM90C2A): 0.09268 µg/mL; IC90 ([1]; calculated from ng/ml IC90 with MW in Column C, read-out: Pf C2A IC90 nM values calculated using MW in Column C): 245 nM; PF W2 IC90 (P. falciparum strain W2; P. falciparum W2): 0.01205 µg/mL; IC50 ([2]; RAW macrophages, range in brackets): 8500 nM; PF C235 IC90 ([3]; P. falciparum TM91C235): 0.04519 µg/mL
4 | OC(CNc1nc2ccccc2[nH]1)c1cc(C(F)(F)F)nc2c(C(F)(F)F)cccc12 (racemic) [WR308491] | – | – | – | – | – | – | 190 nM | –
5 | OC(CNc1nc2ccccc2[nH]1)c1cc(C(F)(F)F)nc2c(C(F)(F)F)cccc12 (racemic) [compound 308491] | 0.0482 µg/mL (≈ 0.11 µM) | 0.0835 µg/mL | 3.8 | 0.0219 µg/mL (≈ 0.0498 µM) | 15400 nM | 0.0716 µg/mL (≈ 0.163 µM) | – | –
6 | CCN(CC)CC(O)c1cc(C(F)(F)F)nc2c(C(F)(F)F)cccc12 (racemic) [WR308254] | – | – | – | – | – | – | 176 nM | –
7 | Cc1ccc(CNCC(O)c2cc(C(F)(F)F)nc3c(C(F)(F)F)cccc23)cc1 (racemic) [WR308375] | – | – | – | – | – | – | 103 nM | –
8 | OC(CNC1CCCCC1)c1cc(C(F)(F)F)nc2c(C(F)(F)F)cccc12 (racemic) [WR308248] | – | – | – | – | – | – | 66 nM | –
9 | CCCCN(CCCC)CC(O)c1cc(C(F)(F)F)nc2c(C(F)(F)F)cccc12 (racemic) [compound 176990] | 0.011 µg/mL (≈ 0.0252 µM) | 0.019 µg/mL | 7.9 | 0.00239 µg/mL (≈ 0.00548 µM) | 46000 nM | 0.027 µg/mL (≈ 0.0619 µM) | – | –
10 | CCCCNCC(O)c1cc(C(F)(F)F)nc2c(C(F)(F)F)cccc12 (racemic) [compound 177000] | 0.00658 µg/mL (≈ 0.0173 µM) | 0.0123 µg/mL | 7.3 | 0.00169 µg/mL (≈ 0.00444 µM) | 7800 nM | 0.00891 µg/mL (≈ 0.0234 µM) | – | –
11 | N#CCCN(CC(O)c1cc(C(F)(F)F)nc2c(C(F)(F)F)cccc12)C1CCCCC1 (racemic) [WR308486] | – | – | – | – | – | – | 144 nM | –
12 | CCCCN(CCCC)CC(O)c1cc(C(F)(F)F)nc2c(C(F)(F)F)cccc12 (racemic) [WR176990] | – | – | – | – | – | – | 44 nM | –
13 | N#CCCN(CC(O)c1cc(C(F)(F)F)nc2c(C(F)(F)F)cccc12)C1CCCCC1 (racemic) [compound 308486] | 0.0312 µg/mL (≈ 0.0678 µM) | 0.0662 µg/mL | 12.1 | 0.00549 µg/mL (≈ 0.0119 µM) | 18700 nM | 0.0413 µg/mL (≈ 0.0899 µM) | – | –
14 | CCN(CC)CC(O)c1cc(C(F)(F)F)nc2c(C(F)(F)F)cccc12 (racemic) [compound 308254] | 0.0264 µg/mL (≈ 0.0694 µM) | 0.0669 µg/mL | 7.4 | 0.00901 µg/mL (≈ 0.0237 µM) | 5500 nM | 0.0365 µg/mL (≈ 0.096 µM) | – | –
15 | OC(CNCCC1=CCCCC1)c1cc(C(F)(F)F)nc2c(C(F)(F)F)cccc12 (racemic) [WR308249] | – | – | – | – | – | – | 160 nM | –
16 | OC(CNCCc1ccccc1)c1cc(C(F)(F)F)nc2c(C(F)(F)F)cccc12 (racemic) [compound 308253] | 0.0191 µg/mL (≈ 0.0446 µM) | 0.0425 µg/mL | 9.0 | 0.00472 µg/mL (≈ 0.011 µM) | 22500 nM | 0.0229 µg/mL (≈ 0.0536 µM) | – | –
17 | OC(c1cc(C(F)(F)F)nc2c(C(F)(F)F)cccc12)C1CCCCN1 (stereo not shown) [142490 (MQ)] | – | 0.071 µg/mL | 6.5 | – | 7270 nM | – | – | IC90 (P. falciparum strain D6; P. falciparum D6, read-out: PF D6 IC90): 0.025 µg/mL (≈ 0.0661 µM); IC90 ([1]; Plasmodium falciparum, TM90C2A, read-out: Pf C2A IC90 nM values calculated using MW in Column C): 171 nM; IC90 (P. falciparum strain W2; P. falciparum W2, read-out: PF W2 IC90): 0.011 µg/mL (≈ 0.0291 µM); IC90 ([3]; P. falciparum TM91C235): 0.064 µg/mL (≈ 0.169 µM)
18 | CC1CCN(CC(C)(C)NCC(O)c2cc(C(F)(F)F)nc3c(C(F)(F)F)cccc23)CC1 (racemic) [WR308592] | – | – | – | – | – | – | 137 nM | –
19 | CCCCN(CCC#N)CC(O)c1cc(C(F)(F)F)nc2c(C(F)(F)F)cccc12 (racemic) [compound 308485] | 0.0604 µg/mL (≈ 0.139 µM) | 0.0883 µg/mL | 9.5 | 0.00934 µg/mL (≈ 0.0216 µM) | 46600 nM | 0.059 µg/mL (≈ 0.136 µM) | – | –
20 | OC(CNC1CCCCC1)c1cc(C(F)(F)F)nc2c(C(F)(F)F)cccc12 (racemic) [compound 308248] | 0.00957 µg/mL (≈ 0.0235 µM) | 0.027 µg/mL | 10.8 | 0.00249 µg/mL (≈ 0.00613 µM) | 19800 nM | 0.0144 µg/mL (≈ 0.0353 µM) | – | –
21 | CC(C)N(CC(O)c1cc(C(F)(F)F)nc2c(C(F)(F)F)cccc12)C(C)C (racemic) [WR308277] | – | – | – | – | – | – | 75 nM | –
22 | CCCCN(CCC#N)CC(O)c1cc(C(F)(F)F)nc2c(C(F)(F)F)cccc12 (racemic) [WR308485] | – | – | – | – | – | – | 204 nM | –
23 | CCCNCC(O)c1cc(C(F)(F)F)nc2c(C(F)(F)F)cccc12 (racemic) [compound 183544] | 0.0067 µg/mL (≈ 0.0183 µM) | 0.016 µg/mL | 14.5 | 0.0011 µg/mL (≈ 0.003 µM) | – | 0.014 µg/mL (≈ 0.0382 µM) | – | –
24 | CC1CCN(CC(C)(C)NCC(O)c2cc(C(F)(F)F)nc3c(C(F)(F)F)cccc23)CC1 (racemic) [compound 308592] | 0.0284 µg/mL (≈ 0.0594 µM) | 0.0653 µg/mL | 14.7 | 0.00445 µg/mL (≈ 0.00932 µM) | 38000 nM | 0.0625 µg/mL (≈ 0.131 µM) | – | –
25 | CC(C)N(CC(O)c1cc(C(F)(F)F)nc2c(C(F)(F)F)cccc12)C(C)C (racemic) [compound 308277] | 0.0195 µg/mL (≈ 0.0477 µM) | 0.0305 µg/mL | 6.7 | 0.00452 µg/mL (≈ 0.0111 µM) | 81200 nM | 0.0209 µg/mL (≈ 0.0512 µM) | – | –
26 | OC(CNCCc1ccccc1)c1cc(C(F)(F)F)nc2c(C(F)(F)F)cccc12 (racemic) [WR308253] | – | – | – | – | – | – | 99 nM | –
27 | Cc1ccc(CNCC(O)c2cc(C(F)(F)F)nc3c(C(F)(F)F)cccc23)cc1 (racemic) [compound 308375] | 0.0392 µg/mL (≈ 0.0916 µM) | 0.044 µg/mL | 8.4 | 0.00526 µg/mL (≈ 0.0123 µM) | > 100000 nM | 0.0443 µg/mL (≈ 0.103 µM) | – | –
